PubChem BioAssay AID1259408 (Genetic Toxicology Data Bank (GENE-TOX), 2018)
The source made the active and inactive calls. No rule for the calls is given here.

System: GENE-TOX genotoxicity assays, various organisms and cells
Test: GENE-TOX mutagenicity studies
Conditions: for call: Assay Type: In vivo carcinogenicity studies
[1] = Species/Cell Type: Drosophila melanogaster, Assay Type: Aneuploidy, partial sex chromosome loss, chromosome aberrations, Assay Code: DAPT, Evaluation Type: Evaluation A (Pre-1980)
[2] = Species/Cell Type: Drosophila melanogaster, Assay Type: Aneuploidy, whole sex chromosome loss, chromosome aberrations, Assay Code: DAC+M, Evaluation Type: Evaluation A (Pre-1980)
[3] = Species/Cell Type: Drosophila melanogaster, Assay Type: Sex-linked recessive lethal gene mutation, Assay Code: SRL+, Evaluation Type: Evaluation A (Pre-1980)
[4] = Species/Cell Type: Drosophila melanogaster, Assay Type: Sex-linked recessive lethal gene mutation, Assay Code: SRLT, Evaluation Type: Evaluation A (Pre-1980)
[5] = Species/Cell Type: Human lymphocytes, Assay Type: Sister-chromatid exchange (SCE) in vitro, Assay Code: SCL+, Evaluation Type: Evaluation B (Post-1980)
[6] = Species/Cell Type: Human, Assay Type: Sister-chromatid exchange (SCE) in vitro, Assay Code: SC1+, Evaluation Type: Evaluation B (Post-1980)
[7] = Species/Cell Type: Mammalian polychromatic erythrocytes, Assay Type: Micronucleus test, chromosome aberrations, Assay Code: MNT+, Evaluation Type: Evaluation B (Post-1980)
[8] = Species/Cell Type: Neurospora crassa, Assay Type: Aneuploidy, chromosome aberrations, Assay Code: NEN-, Evaluation Type: Evaluation A (Pre-1980)
[9] = Species/Cell Type: Nonhuman, Assay Type: Sister-chromatid exchange (SCE) in vivo, Assay Code: SC3T, Evaluation Type: Evaluation B (Post-1980)
[10] = Species/Cell Type: Saccharomyces cerevisiae, Assay Type: Mitotic recombination or gene conversion, Assay Code: YEC-, Evaluation Type: Evaluation A (Pre-1980)
[11] = Species/Cell Type: Salmonella typhimurium (one or more of the five standard strains: TA98, TA100, TA1535, TA1537, and TA1538), Assay Type: Histidine reverse gene mutation, Ames assay, Assay Code: SALT, Evaluation Type: Evaluation A (Pre-1980)
[12] = Species/Cell Type: Salmonella typhimurium (one or more of the five standard strains: TA98, TA100, TA1535, TA1537, and TA1538), Assay Type: Histidine reverse gene mutation, Ames assay, Assay Code: SAL+*, Activation: With metabolic activation, Evaluation Type: Evaluation A (Pre-1980)
[13] = Species/Cell Type: Salmonella typhimurium (one or more of the five standard strains: TA98, TA100, TA1535, TA1537, and TA1538), Assay Type: Histidine reverse gene mutation, Ames assay, Assay Code: SAL+, Evaluation Type: Evaluation A (Pre-1980)
[14] = Species/Cell Type: Neurospora crassa, Assay Type: Forward gene mutation, Assay Code: NEF+, Evaluation Type: Evaluation A (Pre-1980)

For `F`, the mutagenic call (Species/Cell Type: Allium cepa, Assay Type: Chromosome aberrations, Assay Code: ALC+D, Dose Response: With dose response, Evaluation Type: Evaluation A (Pre-1980)) was “active; positive”, the mutagenic call [1] was “no conclusion” and the mutagenic call (Species/Cell Type: Drosophila melanogaster, Assay Type: Aneuploidy, sex chromosome gain, chromosome aberrations, Assay Code: DAG-F, Evaluation Type: Evaluation A (Pre-1980)) was “inactive; negative”. The mutagenic call [2] was “active; positive”, the mutagenic call [3] was “active; positive” and the mutagenic call [4] was “no conclusion”. For the same compound, the mutagenic call [5] was “active; positive”, the mutagenic call (Species/Cell Type: Human lymphocytes, Assay Type: Sister-chromatid exchange (SCE) in vitro, Assay Code: SCLT, Evaluation Type: Evaluation B (Post-1980)) was “no conclusion” and the mutagenic call [6] was “active; positive”. The mutagenic call (Species/Cell Type: Human, Assay Type: Sister-chromatid exchange (SCE) in vitro, Assay Code: SC1T, Evaluation Type: Evaluation B (Post-1980)) was “no conclusion”, the mutagenic call [7] was “active; positive” and the mutagenic call [8] was “inactive; negative”. For the same compound, the mutagenic call (Species/Cell Type: Nonhuman lymphocytes or leukocytes, Assay Type: Chromosome aberrations in vivo, Assay Code: CY%-, Evaluation Type: Evaluation A (Pre-1980)) was “inactive; negative”, the mutagenic call (Species/Cell Type: Nonhuman, Assay Type: Sister-chromatid exchange (SCE) in vivo, Assay Code: SC3-, Evaluation Type: Evaluation A (Pre-1980)) was “inactive; negative” and the mutagenic call [9] was “no conclusion”. For the same compound, the mutagenic call [10] was “inactive; negative” and the mutagenic call [11] was “no conclusion”.

`O=NN1CCCC(O)C1` (stereo not drawn) was tested, and the mutagenic call [12] was “active; positive”.

`OC(c1ccc2c(c1)OCO2)C1CO1` (stereo not drawn) was tested, and the mutagenic call [4] was “no conclusion” and the mutagenic call [13] was “active; positive”.

In the case of `CC1=CCc2c1cc(C)c1c2ccc2ccccc21`, the mutagenic call [12] is reported as “active; positive”.

In the case of `OCc1ccc(-c2ccccc2)cc1`, the mutagenic call (Species/Cell Type: Chinese hamster ovary (CHO) cells, Assay Type: Forward gene mutation at the HPRT locus, Assay Code: CHOT, Evaluation Type: Evaluation B (Post-1980)) is reported as “no conclusion” and the mutagenic call (Species/Cell Type: Mammalian polychromatic erythrocytes, Assay Type: Micronucleus test, chromosome aberrations, Assay Code: MNT+U, Dose Response: Unconfirmed positive response, Evaluation Type: Evaluation B (Post-1980)) is reported as “active; positive”.

In the case of `COc1ccc2[nH]c3c(C)c4ccncc4c(C)c3c2c1`, the mutagenic call (Species/Cell Type: Chinese hamster ovary (CHO) cells, Assay Type: Forward gene mutation at the HPRT locus, Assay Code: CHO+, Evaluation Type: Evaluation B (Post-1980)) is reported as “active; positive”.

With `C=Cc1ccccc1C` the mutagenic call (Species/Cell Type: Human lymphocytes, Assay Type: Sister-chromatid exchange (SCE) in vitro, Assay Code: SCL+D, Dose Response: With dose response, Evaluation Type: Evaluation B (Post-1980)) was “active; positive” and the mutagenic call (Species/Cell Type: Human, Assay Type: Sister-chromatid exchange (SCE) in vitro, Assay Code: SC1+D, Dose Response: With dose response, Evaluation Type: Evaluation B (Post-1980)) was “active; positive”.

With `ClCc1c2ccccc2c(CCl)c2ccccc12` the mutagenic call [13] was “active; positive”.

For `NC(=O)N(CCO)N=O`, the mutagenic call [13] was “active; positive”.

`C[N+](=O)[O-]` was tested, and the mutagenic call (Species/Cell Type: Mammalian polychromatic erythrocytes, Assay Type: Micronucleus test, chromosome aberrations, Assay Code: MNTT, Evaluation Type: Evaluation B (Post-1980)) was “no conclusion”.

With `O=C(O)C1CCCCN1` (stereo not drawn) the mutagenic call (Species/Cell Type: Salmonella typhimurium, Assay Type: Forward and reverse gene mutation, host-mediated assay, Assay Code: HMA-, Evaluation Type: Evaluation A (Pre-1980)) was “inactive; negative”.

With `CCCCC1C(=O)N(c2ccccc2)N(c2ccccc2)C1=O` the mutagenic call (Species/Cell Type: Mammalian germ cells, Sex: Male, Assay Type: Chromosome aberrations in vivo, Assay Code: CY9-, Evaluation Type: Evaluation A (Pre-1980)) was “inactive; negative”, the mutagenic call [7] was “active; positive” and the mutagenic call (Species/Cell Type: Mammalian polychromatic erythrocytes, Assay Type: Micronucleus test, chromosome aberrations, Assay Code: MNTT, Evaluation Type: Evaluation A (Pre-1980)) was “no conclusion”. The mutagenic call (Species/Cell Type: Rodents, Sex: Male, Assay Type: Dominant lethal test, Assay Code: DLT-, Evaluation Type: Evaluation A (Pre-1980)) was “inactive; negative” and the mutagenic call [11] was “no conclusion”.

For `O=C(OCN=Nc1ccccc1)c1ccccc1`, the mutagenic call (Species/Cell Type: Escherichia coli polA (W3119 vs P3478), Assay Type: Rec-assay, DNA effects (bacterial DNA repair), Assay Code: RE1T, Evaluation Type: Evaluation A (Pre-1980)) was “no conclusion”.

For `CCN(CC)CCNc1ccc(C)c2sc3ccccc3c(=O)c12`, the mutagenic call [2] was “active; positive”, the mutagenic call [3] was “active; positive” and the mutagenic call (Species/Cell Type: Escherichia coli polA (W3119 vs P3478), Assay Type: Rec-assay, DNA effects (bacterial DNA repair), Assay Code: RE1+, Evaluation Type: Evaluation A (Pre-1980)) was “active; positive”. For the same compound, the mutagenic call (Species/Cell Type: Fischer rat embryo (RLV/1706) cells, Assay Type: Cell transformation, viral enhanced, Assay Code: CTR+, Evaluation Type: Evaluation A (Pre-1980)) was “active; positive”, the mutagenic call (Species/Cell Type: Mouse lymphoma (L5178Y) cells, Assay Type: Forward gene mutation at the thymidine kinase (TK) locus, chromosome aberrations, Assay Code: L51+, Evaluation Type: Evaluation A (Pre-1980)) was “active; positive” and the mutagenic call [8] was “inactive; negative”. The mutagenic call [14] was “active; positive”, the mutagenic call [12] was “active; positive” and the mutagenic call [11] was “no conclusion”.

In the case of `Cc1ccc(C2CO2)cc1` (stereo not drawn), the mutagenic call (Species/Cell Type: Escherichia coli WP2 UVRA, Assay Type: Tryptophan reverse gene mutation, Assay Code: WPU+D, Dose Response: With dose response, Evaluation Type: Evaluation A (Pre-1980)) is reported as “active; positive”, the mutagenic call [5] is reported as “active; positive” and the mutagenic call [6] is reported as “active; positive”. The mutagenic call [13] was “active; positive”.

`FC(F)(F)C(Cl)Br` (stereo not drawn) was tested, and the mutagenic call (Species/Cell Type: Chinese hamster lung (V79) cells, Assay Type: Forward gene mutation at the HPRT or ouabain locus, Assay Code: V79-, Evaluation Type: Evaluation A (Pre-1980)) was “inactive; negative”, the mutagenic call [3] was “active; positive” and the mutagenic call (Species/Cell Type: Human lymphocytes, Assay Type: Sister-chromatid exchange (SCE) in vivo, Assay Code: SCY+, Evaluation Type: Evaluation B (Post-1980)) was “active; positive”. For the same compound, the mutagenic call (Species/Cell Type: Mouse, Sex: Male, Assay Type: Sperm morphology, Assay Code: SPI-, Evaluation Type: Evaluation A (Pre-1980)) was “inactive; negative”, the call (Species/Cell Type: Nonhuman, Assay Code: CCG-L, Evaluation Type: Evaluation A (Pre-1980)) was “inactive; negative” and the mutagenic call (Species/Cell Type: Nonhuman, Assay Type: Sister-chromatid exchange (SCE) in vitro, Assay Code: SC2T, Evaluation Type: Evaluation B (Post-1980)) was “no conclusion”. The mutagenic call [9] was “no conclusion”, the mutagenic call (Species/Cell Type: Saccharomyces cerevisiae, Assay Type: Mitotic recombination or gene conversion, Assay Code: YEC+, Evaluation Type: Evaluation A (Pre-1980)) was “active; positive” and the mutagenic call (Species/Cell Type: Saccharomyces cerevisiae, Assay Type: Mitotic recombination or gene conversion, Assay Code: YEH+, Evaluation Type: Evaluation A (Pre-1980)) was “active; positive”. For the same compound, the mutagenic call (Species/Cell Type: Saccharomyces cerevisiae, Assay Type: Reverse gene mutation, Assay Code: YER+, Evaluation Type: Evaluation A (Pre-1980)) was “active; positive” and the mutagenic call (Species/Cell Type: Vicia faba, Assay Type: Chromosome aberrations, Assay Code: VIC+D, Dose Response: With dose response, Evaluation Type: Evaluation A (Pre-1980)) was “active; positive”.

`O=C1C(N2CC2)=C(N2CC2)C(=O)C(N2CC2)=C1N1CC1` was tested, and the mutagenic call [1] was “no conclusion”, the mutagenic call [2] was “active; positive” and the mutagenic call [3] was “active; positive”. For the same compound, the mutagenic call [14] was “active; positive” and the mutagenic call (Species/Cell Type: Neurospora crassa, Assay Type: Reverse gene mutation, Assay Code: NER+, Evaluation Type: Evaluation A (Pre-1980)) was “active; positive”.

`Nc1ccc2cc3ccccc3nc2c1` was tested, and the mutagenic call (Species/Cell Type: Mouse (BALB/c-3T3) cells, Assay Type: Cell transformation, Assay Code: CTB-, Evaluation Type: Evaluation A (Pre-1980)) was “inactive; negative”.

With `CC(=O)OC1C2OC2C2=CC(O)C3(CC2(C)C1C)OC3(C)CO` (stereo not drawn) the mutagenic call [10] was “inactive; negative”.

`Cc1ccccc1N=Nc1c(O)ccc2ccccc12` was tested, and the mutagenic call (Species/Cell Type: Bacillus subtilis (H17 vs M45T), Assay Type: Rec-assay, spot test, DNA effects (bacterial DNA repair), Assay Code: REXT, Evaluation Type: Evaluation A (Pre-1980)) was “no conclusion” and the call (Species/Cell Type: Nonhuman, Assay Code: CCG+, Evaluation Type: Evaluation A (Pre-1980)) was “active; positive”.

With `Cc1ccc2cc3c4c(ccc3c3c2c1CC3)C(O)C(O)C=C4` (stereo not drawn) the mutagenic call (Species/Cell Type: Chinese hamster lung (V79) cells, Assay Type: Forward gene mutation at the HPRT or ouabain locus, Assay Code: V79+, Evaluation Type: Evaluation A (Pre-1980)) was “active; positive”, the call (Species/Cell Type: Nonhuman, Assay Code: CCG+L, Evaluation Type: Evaluation A (Pre-1980)) was “active; positive” and the mutagenic call [12] was “active; positive”.

For `O=C1c2cccc(O)c2C(=O)c2c(O)cc(CO)cc21`, the mutagenic call (Species/Cell Type: Salmonella typhimurium (one or more of the five standard strains: TA98, TA100, TA1535, TA1537, and TA1538), Assay Type: Histidine reverse gene mutation, Ames assay, Assay Code: SAL+/-*, Activation: With metabolic activation, Evaluation Type: Evaluation A (Pre-1980)) was “inactive; positive without activation, negative with activation”.
